Assay results published in patent EP2987533B1, “7-substituted piperazin-1-yl fluoroquinolone compounds, their use in the treatment of cancer, pharmaceutical compositions and a method for preparation” (priority 2014, dated 2016).

Tests used:
Assay in all cases: NCI one-dose SRB growth assay
Type in all cases: cell-based
LOX IMVI = settings: Homo sapiens; LOX IMVI (Melanoma), 10^-5 M, 48 h; read-out: % Growth Inhibition (GI %)
Outline: (§1)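 SRB colorimetry after 48 h incubation with a 10^-5M single dose; growth % relative to untreated.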

A549/ATCC = settings: Homo sapiens; A549/ATCC (Non-Small Cell Lung Cancer), 10^-5 M, 48 h; read-out: % Growth Inhibition (GI %)
Outline: as §1

HOP-92 = settings: Homo sapiens; HOP-92 (Non-Small Cell Lung Cancer), 10^-5 M, 48 h; read-out: % Growth Inhibition (GI %)
Outline: as §1

MDA-MB-435 = settings: Homo sapiens; MDA-MB-435 (Melanoma), 10^-5 M, 48 h; read-out: % Growth Inhibition (GI %)
Outline: as §1

UACC-62 = settings: Homo sapiens; UACC-62 (Melanoma), 10^-5 M, 48 h; read-out: % Growth Inhibition (GI %)
Outline: as §1

U251 = settings: Homo sapiens, U-251; U251 (CNS Cancer), 10^-5 M, 48 h; read-out: % Growth Inhibition (GI %)
Outline: as §1

BT-549 = settings: Homo sapiens; BT-549 (Breast Cancer), 10^-5 M, 48 h; read-out: % Growth Inhibition (GI %)
Outline: as §1

NCI-H23 = settings: Homo sapiens; NCI-H23 (Non-Small Cell Lung Cancer), 10^-5 M, 48 h; read-out: % Growth Inhibition (GI %)
Outline: as §1

CAKI-1 = settings: Homo sapiens; CAKI-1 (Renal Cancer), 10^-5 M, 48 h; read-out: % Growth Inhibition (GI %)
Outline: as §1

NCI-H322M = settings: Homo sapiens; NCI-H322M (Non-Small Cell Lung Cancer), 10^-5 M, 48 h; read-out: % Growth Inhibition (GI %)
KM12 = settings: Homo sapiens; KM12 (Colon Cancer), 10^-5 M, 48 h; read-out: % Growth Inhibition (GI %)
Outline: as §1

M14 = settings: Homo sapiens; M14 (Melanoma), 10^-5 M, 48 h; read-out: % Growth Inhibition (GI %)
Outline: as §1

OVCAR-3 = settings: Homo sapiens; OVCAR-3 (Ovarian Cancer), 10^-5 M, 48 h; read-out: % Growth Inhibition (GI %)
Outline: as §1

MALME-3M = settings: Homo sapiens; MALME-3M (Melanoma), 10^-5 M, 48 h; read-out: % Growth Inhibition (GI %)
Outline: as §1

MDA-MB-231/ATCC = settings: Homo sapiens; MDA-MB- 231/ATCC (Breast Cancer), 10^-5 M, 48 h; read-out: % Growth Inhibition (GI %)
Outline: as §1

HCT-15 = settings: Homo sapiens; HCT-15 (Colon Cancer), 10^-5 M, 48 h; read-out: % Growth Inhibition (GI %)
Outline: as §1

SF-539 = settings: Homo sapiens; SF-539 (CNS Cancer), 10^-5 M, 48 h; read-out: % Growth Inhibition (GI %)
Outline: as §1

HCC-2998 = settings: Homo sapiens; HCC-2998 (Colon Cancer), 10^-5 M, 48 h; read-out: % Growth Inhibition (GI %)
Outline: as §1

UACC-257 = settings: Homo sapiens; UACC-257 (Melanoma), 10^-5 M, 48 h; read-out: % Growth Inhibition (GI %)
Outline: as §1

COLO 205 = settings: Homo sapiens; COLO 205 (Colon Cancer), 10^-5 M, 48 h; read-out: % Growth Inhibition (GI %)
Outline: as §1

MCF7 = settings: Homo sapiens; MCF7 (Breast Cancer), 10^-5 M, 48 h; read-out: % Growth Inhibition (GI %)
Outline: as §1

HL-60(TB) = settings: Homo sapiens; HL-60(TB) (Leukemia), 10^-5 M, 48 h; read-out: % Growth Inhibition (GI %)
T-47D = settings: Homo sapiens, T47D; T-47D (Breast Cancer), 10^-5 M, 48 h; read-out: % Growth Inhibition (GI %)
Outline: as §1

IGROV1 = settings: Homo sapiens, IGROV-1; IGROV1 (Ovarian Cancer), 10^-5 M, 48 h; read-out: % Growth Inhibition (GI %)
NCI-H226 = settings: Homo sapiens; NCI-H226 (Non-Small Cell Lung Cancer), 10^-5 M, 48 h; read-out: % Growth Inhibition (GI %)
Outline: as §1

HT29 = settings: Homo sapiens, HT-29; HT29 (Colon Cancer), 10^-5 M, 48 h; read-out: % Growth Inhibition (GI %)
Outline: as §1

SMILES | inhibition at 10 µM (LOX IMVI) [%] | inhibition at 10 µM (A549/ATCC) [%] | inhibition at 10 µM (HOP-92) [%] | inhibition at 10 µM (MDA-MB-435) [%] | inhibition at 10 µM (UACC-62) [%] | inhibition at 10 µM (U251) [%] | inhibition at 10 µM (BT-549) [%] | inhibition at 10 µM (NCI-H23) [%] | inhibition at 10 µM (CAKI-1) [%] | inhibition at 10 µM (NCI-H322M) [%] | inhibition at 10 µM (KM12) [%] | inhibition at 10 µM (M14) [%] | inhibition at 10 µM (OVCAR-3) [%] | inhibition at 10 µM (MALME-3M) [%] | inhibition at 10 µM (MDA-MB-231/ATCC) [%] | inhibition at 10 µM (HCT-15) [%] | inhibition at 10 µM (SF-539) [%] | inhibition at 10 µM (HCC-2998) [%] | inhibition at 10 µM (UACC-257) [%] | inhibition at 10 µM (COLO 205) [%] | other results
O=C(O)c1cn(C2CC2)c2cc(N3CCN(S(=O)(=O)c4ccc(Cl)cc4Cl)CC3)c(F)cc2c1=O [Compound 2b] | 38.6 | < 10 | < 10 | < 10 | 14.6 | < 10 | 13.7 | 16.8 | 12.1 | 12.8 | < 10 | < 10 | < 10 | < 10 | < 10 | 16.2 | < 10 | < 10 | < 10 | 11.9 | inhibition at 10 µM (MCF7): 82.4%; inhibition at 10 µM (HL-60(TB)): 13.1%; inhibition at 10 µM (T-47D): 26.4%; inhibition at 10 µM (IGROV1): < 10%; inhibition at 10 µM (NCI-H226): 39.7%; inhibition at 10 µM (HT29): < 10%
Cc1cc(C)c(S(=O)(=O)N2CCN(c3cc4c(cc3F)c(=O)c(C(=O)O)cn4C3CC3)CC2)c(C)c1 [Compound 6b] | 70.4 | 79.7 | 53.1 | 23.9 | 23.4 | 80.3 | 22.7 | 42.6 | 32.9 | 25.3 | 39.3 | 36.5 | < 10 | 40.3 | 15.4 | 44.9 | 53.5 | 52.3 | 13.1 | 42.4 | inhibition at 10 µM (MCF7): 46%; inhibition at 10 µM (HL-60(TB)): 91.3%; inhibition at 10 µM (T-47D): 37%; inhibition at 10 µM (IGROV1): 64.3%; inhibition at 10 µM (NCI-H226): 28.2%; inhibition at 10 µM (HT29): 71.7%
CCn1cc(C(=O)O)c(=O)c2cc(F)c(N3CCN(S(=O)(=O)c4ccc(Cl)cc4Cl)CC3)cc21 [Compound 2a] | > 100 | 98 | > 100 | 87.2 | 83.8 | 87.9 | > 100 | > 100 | 95.2 | > 100 | 90.6 | 84.1 | 92.1 | > 100 | 74.5 | 92.4 | 91.4 | 69.4 | > 100 | > 100 | inhibition at 10 µM (MCF7): 10.8%; inhibition at 10 µM (HL-60(TB)): > 100%; inhibition at 10 µM (T-47D): 98.3%; inhibition at 10 µM (IGROV1): 92.5%; inhibition at 10 µM (NCI-H226): 86.9%; inhibition at 10 µM (HT29): 98.1%
CCn1cc(C(=O)O)c(=O)c2cc(F)c(N3CCN(S(=O)(=O)c4c(C)cc(C)cc4C)CC3)cc21 [Compound 6a] | 38.7 | 22 | 12.6 | 10.9 | 24.1 | 16.6 | 26.3 | 22.3 | 10.7 | 16.5 | 12.8 | 24.4 | 10.8 | < 10 | 16.3 | 28.5 | 20.1 | 17.5 | < 10 | < 10 | inhibition at 10 µM (MCF7): < 10%; inhibition at 10 µM (HL-60(TB)): 26.9%; inhibition at 10 µM (T-47D): 25.9%; inhibition at 10 µM (IGROV1): 20.6%; inhibition at 10 µM (NCI-H226): 23.1%; inhibition at 10 µM (HT29): < 10%
